The record followed here is patent publication US20240287065A1, “COMPOUND AS CDK KINASE INHIBITOR AND USE THEREOF” (TYK MEDICINES (ZHENGZHOU) , INC., priority 2021, published 2024).

For one experiment, the system named is HCC1806 cells. The experiment can be described thus: Cell proliferation inhibition assay (MTT, 7 days). The following applies: HCC1086 [sic], 7 days incubation. The experiment is classed as cell-based. Put shortly:
(§1)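 Cells were seeded per well at 3000 (MCF7, T47D), 2500 (OVCAR3) or 2000 (HCC1806) and attached overnight. Nine 3-fold compound dilutions (10000-1.52 nM before addition to cells, 0.1% DMSO medium) were applied for 7 days, refreshed on day 4, in 4 replicates. MTT (3 h) was read at 570 nm, normalised to DMSO and blank, and IC50 fitted by three-parameter curve.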

The next experiment has as its system T47D cells. Nature of the experiment: Cell proliferation inhibition assay (MTT, 7 days). Type of experiment: cell-based. The following applies: 7 days incubation. A digest of the protocol: as §1
Another experiment has as its system MCF7 cells. Nature of the experiment: Cell proliferation inhibition assay (MTT, 7 days). The experiment is classed as cell-based. The following applies: 7 days incubation. Put shortly:
as §1

In the next experiment the test system is OVCAR3 cells. Nature of the experiment: Cell proliferation inhibition assay (MTT, 7 days). Type of experiment: cell-based. The following applies: 7 days incubation. A digest of the protocol:
as §1

The test system of a further experiment is MCF-7-Palbo-R cells. Nature of the experiment: MCF-7-Palbo-R cell antiproliferative assay (BrdU ELISA). The experiment is classed as cell-based. The following applies: for IC50: 72 hours, BrdU. How it is done: 1. Experimental Materials • MCF-7/palbo-R • EMEM medium (ATCC, 30-2003); DMEM/F12 medium (Gibco-1 1330-032) • Fetal bovine serum (cellmax-SA21 1.02) • DMSO (SIGMA, D2650) • BrdU ELISA cell proliferation assay kit (Roche, 11647229001) • ELISA (e.g. MD-SpectraMax ID5 or EnVision)
2. Experimental protocol • 1. Cell spreading • 1) Cells were counted, the concentration of cell suspension was adjusted • 2) The MCF7/Palbo-R cell suspension was seeded in 96-well plates at […] volume to make the number of cells per well is 4000-5000; • 3) Blank control group was added with 90 μl of culture medium; • 2. […] A 3-fold serial gradient dilution was performed with 0.1% DMSO medium for a total of 9 concentrations, and the concentrations of the compounds after dilution were as follows: • 10000 nM, 3333.33 nM, 1111.11 nM, 370.34 nM, 123.45 nM, 41.15 nM, 13.72 nM, 4.57 nM, and 1.52 nM. • b) After 72 hours of compound treatment. • 1) A 10 mM of Brdu stock solution was diluted with RPMI medium and added to a 96-well plate at 20 uL/well and shaken at 350 rpm for 10 minutes. • 2) The 96 well plate was placed back into the incubator for 1 or 2 hours. • 3) After the medium was removed from the 96-well plate, 200 ul/well of Fixation/Denaturation solution was added and incubated for 30 minutes at room temperature. • 4) The fixation solution was removed and 100 ul of peroxidase-coupled anti-Brdu antibody solution (antibody dilution prepared at 1:100 dilution) was added, • and incubated at 350 rpm for 1 hour at room temperature. • 6) The 96-well plate was washed three times with 300 ul/well of PBS. • 8) 100ul of peroxidase substrate solution was added and shaken at 350 rpm for about 10-20 minutes at room temperature, • until the DMSO-treated cell control wells turn a medium blue color. If a color is too dark, it will cause the absorbance value to out of the reading range. • 9) The reaction was terminated by the addition of 25 ul of 1 M sulfuric acid. Shake to ensure uniform color. • 10) The absorbance at 450 nm was recorded. • 3. Data analysis • The inhibition rate is calculated using the following equation:
IR (%)=(1−(RLU compound−RLU blank)/(RLU control−RLU blank))*100%.

A further experiment has as its system OVCAR-3 cells. The experiment can be described thus: OVCAR-3 xenograft tumor model. The experiment is classed as in vivo. The following applies: 60 mg/kg, oral tube feeding once daily for 21 days, BALB/c nude female mice. The protocol: OVCAR-3 cells were cultured in RPMI1640 culture medium containing 20% fetal bovine serum and 10 μg/mL Insalin. Cells in the exponential growth phase were collected, and the cells were resuspended in the mixed solution of PBS and Matrigel in a ratio of 1:1 to a suitable concentration for subcutaneous tumor inoculation in nude mice.
To establish a xenograft tumor model, 1×10^7 OVCAR-3 cells were suspended in 0.2 mL of a mixture of PBS and Matrigel (1:1) and injected subcutaneously into 6-8-week-old BALB/c nube female mice on the right back. Tumor growth was observed periodically, and the volume (volume=½[…](length×width 2)) was measured with a vernier caliper. When the tumors grew to an average volume of 100˜150 mm^3, the drug was administered to mice (27 days after inoculation) in random groups according to the tumor size and their body weights. […] Tumor volume and animal weight were measured twice a week and continued until the end of the experiment. Dosing day was defined as day 0. Measurement time points were day 0, day 3, day 7, day 10, day 14, day 17 and day 21. All mice were euthanized by cervical dislocation. At the end of the experiment, tumors were collected and weighed to calculate TGI values (see Table 5).

The next experiment relates to MV4-11 cells. The experiment can be described thus: MV4-11 xenograft tumor model. Type of experiment: in vivo. The following applies: 20 mg/kg, oral tube feeding once a day for 15 days, NOD/SCID mice. The protocol:
MV-4-11 cells were cultured in IMEM culture medium containing 10% fetal bovine serum. Cells in the exponential growth phase were collected, and the cells were resuspended in PBS to a suitable concentration for subcutaneous tumor inoculation in nude mice.
To establish a xenograft tumor model, 5×10^6 MV4-11 cells were suspended in 0.1 mL of a 1:1 mixture of PBS and Matrigel and injected subcutaneously into the right dorsal side of 6-8-week-old NOD/SCID mice. Tumor growth was observed periodically, and the volume (volume=½×(length×width^2)) was measured with a vernier caliper. When the tumors grew to an average volume of 100˜150 mm^3, the drug was administered to mice (12 days after inoculation) in random groups according to the tumor size and their body weights. […] Among them, the mice in the Vehicle, 10 mg/kg TY-3301, 10 mg/kg C3, and 20 mg/kg C3 groups were administered twice a day by oral tube feeding for 15 days, and the mice in the 20 mg/kg TY-3300 group were administered once a day by oral tube feeding for 15 days. Tumor volume and animal weight were measured twice a week and continued until the end of the experiment. Dosing day was defined as day 0. Measurement time points were day 0, day 3, day 7, day 10, day 14, and day 15. All mice were euthanized by cervical dislocation. At the end of the experiment, tumors were collected and weighed to calculate TGI values (see Table 6).

Where two headings read alike, the source gives them in different places. Where only a bound is given, the exact number is not on record here.

In general, TGI refers to the reduction of tumour growth relative to the control group. The low end stands for little slowing of growth, the high end for much slowing of growth. Take Palbociclib [reference compound]: the IC50 in the experiment on HCC1806 cells is above 1000 nM; in the experiment on T47D cells, 50 to 5200 nM; in the experiment on MCF7 cells it was at most 50 nM; in the experiment with OVCAR3 cells it was above 1000 nM; with MCF-7-Palbo-R cells (read-out: AbsIC50), 4.01 µM; in the experiment on MCF-7-Palbo-R cells (read-out: ReIC50), 7.09 µM. Also, the “Bottom(%)” value in the experiment with MCF-7-Palbo-R cells (bottom of inhibition curve) was −3.542%. Moreover, the “Top(%)” value in the experiment on MCF-7-Palbo-R cells (top of inhibition curve) was 68.840%. The figures for the tumour growth inhibition (TGI) in the experiment on OVCAR-3 cells and in the experiment on MV4-11 cells were 27.7% and 39%, respectively.
